According to PubChem BioAssay AID256 (DTP/NCI, 2004):
“And” between values parts separate entries of the source, which are not always exact repeats. Equal entries are not always repeated. Inconclusive results and toxic doses are left out. Non-standard residues stand in square brackets, D forms with d. Residues, ends and D or L forms follow the SMILES beside them. Ac5c = NC1(C(=O)O)CCCC1

System: CD2F1 mice, L1210 leukemia ip, survival T/C
Test: NCI In Vivo Anticancer Drug Screen. Data for tumor model L1210 Leukemia (intraperitoneal) in CD2F1 (CDF1) mice
Conditions: higher = longer survival
In short: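 Activity against a transplanted murine tumor was judged by comparing the compound group with a vehicle group. The outcome in the treated animals was divided by that in the controls.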

[1] = endpoint: mean survival time, dose: 100.0 mg/kg/injection, schedule: Q01DX001 (ip), vehicle: other
[2] = endpoint: mean survival time, dose: 200.0 mg/kg/injection, schedule: Q01DX001 (ip), vehicle: other
[3] = endpoint: mean survival time, dose: 400.0 mg/kg/injection, schedule: Q01DX001 (ip), vehicle: other
[4] = endpoint: mean survival time, dose: 100.0 mg/kg/injection, schedule: Q01DX009 (ip), vehicle: saline with Tween-80
[5] = endpoint: mean survival time, dose: 100.0 mg/kg/injection, schedule: Q04DX003 (ip), vehicle: saline with Tween-80
[6] = endpoint: mean survival time, dose: 200.0 mg/kg/injection, schedule: Q01DX009 (ip), vehicle: saline with Tween-80
[7] = endpoint: mean survival time, dose: 200.0 mg/kg/injection, schedule: Q04DX003 (ip), vehicle: saline with Tween-80
[8] = endpoint: mean survival time, dose: 400.0 mg/kg/injection, schedule: Q01DX009 (ip), vehicle: saline with Tween-80
[9] = endpoint: mean survival time, dose: 400.0 mg/kg/injection, schedule: Q04DX003 (ip), vehicle: saline with Tween-80

## COc1ccccc1N=Nc1c(O)n(-c2ccccc2OC)c(=S)n(-c2ccc(I)cc2)c1=O
endpoint: mean survival time, dose: 100.0 mg/kg/injection, schedule: Q01DX001 (ip), vehicle: saline with Tween-80
  T/C: 96 % of control
endpoint: mean survival time, dose: 200.0 mg/kg/injection, schedule: Q01DX001 (ip), vehicle: saline with Tween-80
  T/C: 93 % of control
endpoint: mean survival time, dose: 400.0 mg/kg/injection, schedule: Q01DX001 (ip), vehicle: saline with Tween-80
  T/C: 95 % of control

## O=C(O/N=C(\c1ccccc1)c1cccs1)N(c1ccccc1)c1ccccc1
[1]
  T/C: 92 % of control
[2]
  T/C: 98 % of control
[3]
  T/C: 92 % of control

## Cc1ccc(C(C#N)Nc2ccccc2)cc1 (stereo not drawn)
[4]
  T/C: 103 % of control
[5]
  T/C: 100 % of control
[6]
  T/C: 88 % of control
[7]
  T/C: 91 % of control
[8]
  T/C: 93 % of control
[9]
  T/C: 97 % of control

## CCC[CH2][Sn]([CH2]CCC)([CH2]CCC)[CH2]CC(=O)OC
[5]
  T/C: 101 % of control
[7]
  T/C: 95 % of control

## NC(C(=O)O)c1ccc(CBr)cc1 (stereo not drawn)
endpoint: median survival time, dose: 3.12 mg/kg/injection, schedule: Q01DX009 (ip), vehicle: saline with Tween-80
  T/C: 108 % of control
endpoint: median survival time, dose: 6.25 mg/kg/injection, schedule: Q01DX009 (ip), vehicle: saline with Tween-80
  T/C: 116 % of control and 100 % of control and 112 % of control
endpoint: median survival time, dose: 12.5 mg/kg/injection, schedule: Q01DX009 (ip), vehicle: saline with Tween-80
  T/C: 113 % of control and 121 % of control and 105 % of control
endpoint: median survival time, dose: 25.0 mg/kg/injection, schedule: Q01DX009 (ip), vehicle: saline with Tween-80
  T/C: 116 % of control and 103 % of control
endpoint: median survival time, dose: 50.0 mg/kg/injection, schedule: Q01DX009 (ip), vehicle: saline with Tween-80
  T/C: 121 % of control and 108 % of control

## Nc1nc(N)c(N)c(NC(c2ccccc2)c2ccccc2)n1
endpoint: mean survival time, dose: 75.0 mg/kg/injection, schedule: Q01DX001 (ip), vehicle: other
  T/C: 100 % of control

## CC[C+](C)[B-][N+](C)(C)C
endpoint: mean survival time, dose: 100.0 mg/kg/injection, schedule: Q01DX001 (ip), vehicle: saline
  T/C: 93 % of control
endpoint: mean survival time, dose: 200.0 mg/kg/injection, schedule: Q01DX001 (ip), vehicle: saline
  T/C: 98 % of control
endpoint: mean survival time, dose: 400.0 mg/kg/injection, schedule: Q01DX001 (ip), vehicle: saline
  T/C: 100 % of control

## O=C1CCc2c(Br)cccc21
[4]
  T/C: 106 % of control
[5]
  T/C: 114 % of control
[6]
  T/C: 101 % of control
[7]
  T/C: 100 % of control
[8]
  T/C: 110 % of control
[9]
  T/C: 101 % of control

## O=c1c2[nH]cnc2ncn1C1CCCC1
[1]
  T/C: 100 % of control
[2]
  T/C: 100 % of control
[3]
  T/C: 101 % of control

## CC([O-])C(=O)[O-].NCC1CCC1CN.[Pt+4] (stereo not drawn)
endpoint: median survival time, dose: 0.78 mg/kg/injection, schedule: Q04DX003 (ip), vehicle: saline
  T/C: 114 % of control
endpoint: median survival time, dose: 1.56 mg/kg/injection, schedule: Q04DX003 (ip), vehicle: saline
  T/C: 120 % of control
endpoint: median survival time, dose: 3.12 mg/kg/injection, schedule: Q04DX003 (ip), vehicle: saline
  T/C: 156 % of control
endpoint: median survival time, dose: 6.25 mg/kg/injection, schedule: Q04DX003 (ip), vehicle: saline
  T/C: 156 % of control
endpoint: median survival time, dose: 12.5 mg/kg/injection, schedule: Q04DX003 (ip), vehicle: saline
  T/C: 192 % of control and 341 % of control
endpoint: median survival time, dose: 25.0 mg/kg/injection, schedule: Q04DX003 (ip), vehicle: saline
  T/C: 168 % of control and 223 % of control

## Nc1cc(=O)c2nnn(C3OC(CO)C(O)C3O)c2[nH]1 (stereo not drawn)
endpoint: mean survival time, dose: 12.5 mg/kg/injection, schedule: Q01DX005 (ip), vehicle: water
  T/C: 102 % of control
endpoint: mean survival time, dose: 25.0 mg/kg/injection, schedule: Q01DX005 (ip), vehicle: water
  T/C: 98 % of control
endpoint: mean survival time, dose: 50.0 mg/kg/injection, schedule: Q01DX005 (ip), vehicle: water
  T/C: 94 % of control
endpoint: mean survival time, dose: 100.0 mg/kg/injection, schedule: Q01DX005 (ip), vehicle: water
  T/C: 87 % of control
endpoint: mean survival time, dose: 200.0 mg/kg/injection, schedule: Q01DX005 (ip), vehicle: water
  T/C: 105 % of control
endpoint: mean survival time, dose: 400.0 mg/kg/injection, schedule: Q01DX005 (ip), vehicle: water
  T/C: 90 % of control

## N[C@H](C(=O)O)[C@@H]1CC(Cl)=NO1
endpoint: mean survival time, dose: 0.5 mg/kg/injection, schedule: Q01DX009 (ip), vehicle: saline
  T/C: 113 % of control
endpoint: mean survival time, dose: 0.78 mg/kg/injection, schedule: Q01DX009 (ip), vehicle: saline
  T/C: 115 % of control
endpoint: mean survival time, dose: 1.0 mg/kg/injection, schedule: Q01DX009 (ip), vehicle: saline
  T/C: 122 % of control
endpoint: mean survival time, dose: 2.0 mg/kg/injection, schedule: Q01DX009 (ip), vehicle: saline
  T/C: 124 % of control
endpoint: mean survival time, dose: 3.0 mg/kg/injection, schedule: Q01DX009 (ip), vehicle: saline
  T/C: 167 % of control
endpoint: mean survival time, dose: 3.12 mg/kg/injection, schedule: Q01DX009 (ip), vehicle: saline
  T/C: 153 % of control
endpoint: mean survival time, dose: 6.0 mg/kg/injection, schedule: Q01DX009 (ip), vehicle: saline
  T/C: 165 % of control
endpoint: mean survival time, dose: 6.25 mg/kg/injection, schedule: Q01DX009 (ip), vehicle: saline
  T/C: 151 % of control and 156 % of control
endpoint: mean survival time, dose: 8.0 mg/kg/injection, schedule: Q01DX009 (ip), vehicle: saline
  T/C: 157 % of control
endpoint: mean survival time, dose: 12.0 mg/kg/injection, schedule: Q01DX009 (ip), vehicle: saline
  T/C: 104 % of control
endpoint: mean survival time, dose: 12.5 mg/kg/injection, schedule: Q01DX009 (ip), vehicle: saline
  T/C: 118 % of control and 122 % of control
endpoint: mean survival time, dose: 16.0 mg/kg/injection, schedule: Q01DX009 (ip), vehicle: saline
  T/C: 155 % of control
endpoint: mean survival time, dose: 25.0 mg/kg/injection, schedule: Q01DX009 (ip), vehicle: saline
  T/C: 92 % of control
endpoint: mean survival time, dose: 100.0 mg/kg/injection, schedule: Q04DX003 (ip), vehicle: water
  T/C: 153 % of control
endpoint: median survival time, dose: 0.5 mg/kg/injection, schedule: Q01DX009 (ip), vehicle: saline
  T/C: 122 % of control
endpoint: median survival time, dose: 1.0 mg/kg/injection, schedule: Q01DX009 (ip), vehicle: saline
  T/C: 163 % of control
endpoint: median survival time, dose: 2.0 mg/kg/injection, schedule: Q01DX009 (ip), vehicle: saline
  T/C: 180 % of control
endpoint: median survival time, dose: 3.0 mg/kg/injection, schedule: Q01DX009 (ip), vehicle: saline
  T/C: 152 % of control
endpoint: median survival time, dose: 4.0 mg/kg/injection, schedule: Q01DX009 (ip), vehicle: saline
  T/C: 150 % of control
endpoint: median survival time, dose: 6.0 mg/kg/injection, schedule: Q01DX009 (ip), vehicle: saline
  T/C: 114 % of control and 109 % of control
endpoint: median survival time, dose: 16.0 mg/kg/injection, schedule: Q01DX009 (ip), vehicle: saline
  T/C: 123 % of control
endpoint: median survival time, dose: 24.0 mg/kg/injection, schedule: Q01DX009 (ip), vehicle: saline
  T/C: 72 % of control

## CN(C)N=Nc1ccccc1C(N)=O
endpoint: mean survival time, dose: 18.8 mg/kg/injection, schedule: Q01DX009 (ip), vehicle: Klucel (hydroxypropylcellulose) (HPC)
  T/C: 106 % of control
endpoint: mean survival time, dose: 37.5 mg/kg/injection, schedule: Q01DX009 (ip), vehicle: Klucel (hydroxypropylcellulose) (HPC)
  T/C: 117 % of control and 106 % of control
endpoint: mean survival time, dose: 75.0 mg/kg/injection, schedule: Q01DX009 (ip), vehicle: Klucel (hydroxypropylcellulose) (HPC)
  T/C: 116 % of control and 123 % of control
endpoint: mean survival time, dose: 100.0 mg/kg/injection, schedule: Q01DX009 (ip), vehicle: Klucel (hydroxypropylcellulose) (HPC)
  T/C: 151 % of control
endpoint: mean survival time, dose: 150.0 mg/kg/injection, schedule: Q01DX009 (ip), vehicle: Klucel (hydroxypropylcellulose) (HPC)
  T/C: 123 % of control and 86 % of control and 101 % of control

## COc1cc(/C=N\Nc2ccccc2[N+](=O)[O-])cc(OC)c1OC
[4]
  T/C: 93 % of control
[6]
  T/C: 103 % of control
[8]
  T/C: 98 % of control

## CSC(=S)NNC(=O)c1cccc(S(=O)(=O)F)c1
endpoint: mean survival time, dose: 75.0 mg/kg/injection, schedule: Q01DX001 (ip), vehicle: saline
  T/C: 97 % of control
endpoint: mean survival time, dose: 150.0 mg/kg/injection, schedule: Q01DX001 (ip), vehicle: saline
  T/C: 96 % of control
endpoint: mean survival time, dose: 300.0 mg/kg/injection, schedule: Q01DX001 (ip), vehicle: saline
  T/C: 96 % of control

## CCCCC(CC)COP(=O)(CC(CC)CCCC)OCC(CC)CCCC (stereo not drawn)
endpoint: mean survival time, dose: 100.0 mg/kg/injection, schedule: Q04DX003 (ip), vehicle: saline
  T/C: 86 % of control
endpoint: mean survival time, dose: 200.0 mg/kg/injection, schedule: Q04DX003 (ip), vehicle: saline
  T/C: 94 % of control

## NCC(=O)NC1(C(=O)O)CCCC1 (H-Gly-[Ac5c]-OH)
endpoint: mean survival time, dose: 62.5 mg/kg/injection, schedule: Q01DX001 (ip), vehicle: saline
  T/C: 87 % of control
endpoint: mean survival time, dose: 62.5 mg/kg/injection, schedule: Q04DX003 (ip), vehicle: saline
  T/C: 107 % of control
endpoint: mean survival time, dose: 125.0 mg/kg/injection, schedule: Q01DX001 (ip), vehicle: saline
  T/C: 91 % of control
endpoint: mean survival time, dose: 125.0 mg/kg/injection, schedule: Q04DX003 (ip), vehicle: saline
  T/C: 107 % of control
endpoint: mean survival time, dose: 250.0 mg/kg/injection, schedule: Q01DX001 (ip), vehicle: saline
  T/C: 112 % of control
endpoint: mean survival time, dose: 500.0 mg/kg/injection, schedule: Q04DX003 (ip), vehicle: saline
  T/C: 152 % of control

## S=C(S)NC1CCCCC1
endpoint: mean survival time, dose: 6.0 mg/kg/injection, schedule: Q04DX003 (ip), vehicle: saline with Tween-80
  T/C: 98 % of control
endpoint: mean survival time, dose: 12.0 mg/kg/injection, schedule: Q04DX003 (ip), vehicle: saline with Tween-80
  T/C: 102 % of control
endpoint: mean survival time, dose: 24.0 mg/kg/injection, schedule: Q04DX003 (ip), vehicle: saline with Tween-80
  T/C: 94 % of control
